Kd data for 14 compounds are collected here from patent US20230203098A1, “HUMAN TRANSFERRIN RECEPTOR BINDING PEPTIDE” (priority 2020, published 2023).

Each structure is given as a SMILES string. Where a SMILES comes first, the peptide text is derived from it. Bridges are numbered along the chain shown (N, C = ends). [ ]: non-standard residue; d: D form. Ala(imidazo(1,2-a)pyr3yl) = N[C@@H](Cc1cnc2ccccn12)C(=O)O; Trp(1-CH2COOH) = N[C@@H](Cc1cn(CC(=O)O)c2ccccc12)C(=O)O; Phe(3-COOH) = N[C@@H](Cc1cccc(C(=O)O)c1)C(=O)O; NMePhe(3-Cl) = CN[C@@H](Cc1cccc(Cl)c1)C(=O)O; NMeW = CN[C@@H](Cc1c[nH]c2ccccc12)C(=O)O; NMeY = CN[C@@H](Cc1ccc(O)cc1)C(=O)O; 4Pal = N[C@@H](Cc1ccncc1)C(=O)O; Aad = N[C@@H](CCCC(=O)O)C(=O)O; hLys = NCCCCC[C@H](N)C(=O)O

The target in one test is transferrin receptor (hTfR) (Homo sapiens, UniProt P02786). Put plainly: Intermolecular interaction evaluation test between transferrin receptor (hTfR) and peptide by surface plasmon resonance (SPR). It is filed as binding. The following applies: SPR, hTfR; class symbols A-D; read-out: KD. The method, boiled down: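 hTfR captured on Ni-NTA chip then amine-coupled; peptides run single-cycle kinetics at 5–100 nM in 10 mM HEPES pH 8.0, 150 mM NaCl, 0.05% Tween 20, 0.1% BSA, 1.0% DMSO. KD from least-squares curve fitting of sensorgrams.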
transferrin receptor (hTfR), sequence (P02786 whole entry): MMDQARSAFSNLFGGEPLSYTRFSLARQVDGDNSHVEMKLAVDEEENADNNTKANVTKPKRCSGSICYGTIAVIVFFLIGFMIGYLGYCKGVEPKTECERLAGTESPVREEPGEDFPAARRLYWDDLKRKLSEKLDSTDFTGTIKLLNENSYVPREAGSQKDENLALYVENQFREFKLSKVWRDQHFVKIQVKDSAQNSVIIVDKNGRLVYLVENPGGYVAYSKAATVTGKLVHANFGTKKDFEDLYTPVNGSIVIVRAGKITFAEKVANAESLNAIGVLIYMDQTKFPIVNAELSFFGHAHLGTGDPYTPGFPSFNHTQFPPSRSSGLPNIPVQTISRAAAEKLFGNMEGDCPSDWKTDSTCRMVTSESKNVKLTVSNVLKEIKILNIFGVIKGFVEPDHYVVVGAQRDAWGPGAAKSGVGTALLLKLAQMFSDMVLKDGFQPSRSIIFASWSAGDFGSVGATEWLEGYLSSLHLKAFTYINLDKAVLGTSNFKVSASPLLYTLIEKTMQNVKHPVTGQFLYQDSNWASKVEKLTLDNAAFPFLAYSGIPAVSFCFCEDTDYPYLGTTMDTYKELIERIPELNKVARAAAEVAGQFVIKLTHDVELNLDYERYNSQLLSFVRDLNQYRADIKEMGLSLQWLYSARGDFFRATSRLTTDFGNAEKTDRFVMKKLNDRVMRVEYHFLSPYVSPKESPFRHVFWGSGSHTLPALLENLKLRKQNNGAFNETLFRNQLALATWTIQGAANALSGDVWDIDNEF
A general note: In SPR one partner is held on a chip, and binding of the other changes the refractive index at the surface.
Take `CC[C@H](C)[C@@H]1NC(=O)[C@H](Cc2ccc(OC)cc2)NC(=O)[C@H](Cc2ccc(O)cc2)NC(=O)[C@H](CC(N)=O)NC(=O)[C@H](Cc2c[nH]c3ccccc23)N(C)C(=O)[C@H](C(C)C)NC(=O)[C@H](Cc2ccncc2)N(C)C(=O)[C@H](C(C)C)NC(=O)[C@H](C)NC(=O)CSC[C@@H](C(N)=O)NC(=O)[C@H](Cc2ccc(O)cc2)N(C)C(=O)[C@H](Cc2ccccc2)NC(=O)[C@@H](CCCNC(=N)N)NC(=O)[C@H](CCCNC(=N)N)NC(=O)[C@H]([C@@H](C)CC)NC1=O` [compound 451]: the Kd lay in the range of 100 to 1000 nM.
For `CC[C@H](C)[C@@H]1NC(=O)[C@H](Cc2ccc(OC)cc2)NC(=O)[C@H](Cc2ccc(O)cc2)NC(=O)[C@H](CC(N)=O)NC(=O)[C@H](Cc2c[nH]c3ccccc23)N(C)C(=O)[C@H](C(C)C)NC(=O)[C@H](Cc2cccc(C(=O)O)c2)N(C)C(=O)[C@H](C(C)C)NC(=O)[C@H](C)NC(=O)CSC[C@@H](C(N)=O)NC(=O)[C@H](Cc2ccc(O)cc2)N(C)C(=O)[C@H](Cc2ccccc2)NC(=O)[C@@H](CCCNC(=N)N)NC(=O)[C@H](CCCNC(=N)N)NC(=O)[C@H]([C@@H](C)CC)NC1=O` [compound 452], the Kd lay within 100 to 1000 nM.
Still for that read-out and setting: the result for `CC[C@H](C)[C@@H]1NC(=O)[C@H](Cc2ccncc2)NC(=O)[C@H](Cc2ccc(O)cc2)NC(=O)[C@H](CC(N)=O)NC(=O)[C@H](Cc2c[nH]c3ccccc23)N(C)C(=O)[C@H](C(C)C)NC(=O)[C@H](Cc2cccc(Cl)c2)N(C)C(=O)[C@H](C(C)C)NC(=O)[C@H](C)NC(=O)CSC[C@@H](C(N)=O)NC(=O)[C@H](Cc2ccc(O)cc2)N(C)C(=O)[C@H](Cc2ccccc2)NC(=O)[C@@H](CCCNC(=N)N)NC(=O)[C@H](CCCNC(=N)N)NC(=O)[C@H]([C@@H](C)CC)NC1=O` [compound 455] ({CH2CO}-AV[NMePhe(3-Cl)]V[NMeW]NY[4Pal]IIR[dR]F[NMeY]C-NH2; thioether N-15) reads 1 to 100 nM.
On the same count and under the same terms, the result for `CC[C@H](C)[C@@H]1NC(=O)[C@H](Cc2cnc3ccccn23)NC(=O)[C@H](Cc2ccc(O)cc2)NC(=O)[C@H](CC(N)=O)NC(=O)[C@H](Cc2c[nH]c3ccccc23)N(C)C(=O)[C@H](C(C)C)NC(=O)[C@H](Cc2cccc(Cl)c2)N(C)C(=O)[C@H](C(C)C)NC(=O)[C@H](C)NC(=O)CSC[C@@H](C(N)=O)NC(=O)[C@H](Cc2ccc(O)cc2)N(C)C(=O)[C@H](Cc2ccccc2)NC(=O)[C@@H](CCCNC(=N)N)NC(=O)[C@H](CCCNC(=N)N)NC(=O)[C@H]([C@@H](C)CC)NC1=O` [compound 456] ({CH2CO}-AV[NMePhe(3-Cl)]V[NMeW]NY[Ala(imidazo(1,2-a)pyr3yl)]IIR[dR]F[NMeY]C-NH2; thioether N-15) reads 1 to 100 nM; that for `CC[C@H](C)[C@@H]1NC(=O)[C@H](Cc2cccc(C(=O)O)c2)NC(=O)[C@H](Cc2ccc(O)cc2)NC(=O)[C@H](CC(N)=O)NC(=O)[C@H](Cc2c[nH]c3ccccc23)N(C)C(=O)[C@H](C(C)C)NC(=O)[C@H](Cc2cccc(Cl)c2)N(C)C(=O)[C@H](C(C)C)NC(=O)[C@H](C)NC(=O)CSC[C@@H](C(N)=O)NC(=O)[C@H](Cc2ccc(O)cc2)N(C)C(=O)[C@H](Cc2ccccc2)NC(=O)[C@@H](CCCNC(=N)N)NC(=O)[C@H](CCCNC(=N)N)NC(=O)[C@H]([C@@H](C)CC)NC1=O` [compound 458] ({CH2CO}-AV[NMePhe(3-Cl)]V[NMeW]NY[Phe(3-COOH)]IIR[dR]F[NMeY]C-NH2; thioether N-15), 1 to 100 nM.

Staying with this test, now noted: surface plasmon resonance, peptide vs hTfR; read-out: KD value for hTfR by SPR (class symbol).
Take `CC[C@H](C)[C@@H]1NC(=O)[C@H](Cc2ccc(OC)cc2)NC(=O)[C@H](Cc2ccc(O)cc2)NC(=O)[C@H](CC(N)=O)NC(=O)[C@H](Cc2c[nH]c3ccccc23)N(C)C(=O)[C@H](C(C)C)NC(=O)[C@H](Cc2cccc(Cl)c2)N(C)C(=O)[C@@H]2CCCC(=O)NCCCCC[C@H](NC(=O)[C@H]([C@@H](C)CC)NC1=O)C(=O)N[C@H](CCCNC(=N)N)C(=O)N[C@@H](Cc1ccccc1)C(=O)N(C)[C@@H](Cc1ccc(O)cc1)C(=O)N[C@H](C(N)=O)CSCC(=O)N[C@@H](C)C(=O)N2` [compound 418] ({CH2CO}-A[Aad][NMePhe(3-Cl)]V[NMeW]NYY(Me)II[hLys][dR]F[NMeY]C-NH2; lactam 2-11 (inferred); thioether N-15 (inferred)): the Kd lay in the range of 1 to 100 nM.
Still for that read-out and setting: to `CC[C@H](C)[C@@H]1NC(=O)[C@H](Cc2ccc(O)cc2)NC(=O)[C@H](Cc2ccc(O)cc2)NC(=O)[C@H](CC(N)=O)NC(=O)[C@H](Cc2cn(CC(=O)O)c3ccccc23)NC(=O)[C@H](C(C)C)NC(=O)[C@H](Cc2cccc(Cl)c2)N(C)C(=O)[C@@H]2CCCC(=O)NCCCCC[C@H](NC(=O)[C@H]([C@@H](C)CC)NC1=O)C(=O)N[C@H](CCCNC(=N)N)C(=O)N[C@@H](Cc1ccccc1)C(=O)N(C)[C@@H](Cc1ccc(O)cc1)C(=O)N[C@H](C(N)=O)CSCC(=O)N[C@@H](C)C(=O)N2` [compound 419] ({CH2CO}-A[Aad][NMePhe(3-Cl)]V[Trp(1-CH2COOH)]NYYII[hLys][dR]F[NMeY]C-NH2; lactam 2-11; thioether N-15) belongs 1 to 100 nM.
Still for that read-out and setting: the result for `CC[C@H](C)[C@@H]1NC(=O)[C@H](Cc2ccc(O)cc2)NC(=O)[C@H](Cc2ccc(O)cc2)NC(=O)[C@H](CC(N)=O)NC(=O)[C@H](Cc2c[nH]c3ccccc23)NC(=O)[C@H](C(C)C)NC(=O)[C@H](Cc2ccccc2)N(C)C(=O)[C@H](C(C)C)NC(=O)[C@H](C)NC(=O)CSC[C@@H](C(=O)NCCOCCOCCOCCOCCOCCOCCOCCOCCOCCOCCOCCOCCC(N)=O)NC(=O)[C@H](Cc2ccc(O)cc2)N(C)C(=O)[C@H](Cc2ccc(O)cc2)NC(=O)[C@H](CCCNC(=N)N)NC(=O)[C@H](CCCNC(=N)N)NC(=O)[C@H]([C@@H](C)CC)NC1=O` [compound 420] reads 1 to 100 nM; that for `CC[C@H](C)[C@@H]1NC(=O)[C@H](Cc2ccc(O)cc2)NC(=O)[C@H](Cc2ccc(O)cc2)NC(=O)[C@H](CC(N)=O)NC(=O)[C@H](Cc2c[nH]c3ccccc23)NC(=O)[C@H](C(C)C)NC(=O)[C@H](Cc2ccccc2)N(C)C(=O)[C@H](C(C)C)NC(=O)[C@H](C)NC(=O)CSC[C@@H](C(=O)NCC(=O)O)NC(=O)[C@H](Cc2ccc(O)cc2)N(C)C(=O)[C@H](Cc2ccc(O)cc2)NC(=O)[C@H](CCCNC(=N)N)NC(=O)[C@H](CCCNC(=N)N)NC(=O)[C@H]([C@@H](C)CC)NC1=O` [compound 421], 1 to 100 nM; that for `CC[C@H](C)[C@@H]1NC(=O)[C@H](Cc2ccc(O)cc2)NC(=O)[C@H](Cc2ccc(O)cc2)NC(=O)[C@H](CC(N)=O)NC(=O)[C@H](Cc2c[nH]c3ccccc23)NC(=O)[C@H](C(C)C)NC(=O)[C@H](Cc2ccccc2)N(C)C(=O)[C@H](C(C)C)NC(=O)[C@H](C)NC(=O)CSC[C@@H](C(=O)NCC(=O)N[C@H](CCC(=O)O)C(=O)N[C@H](CCC(=O)O)C(=O)N[C@H](CCC(=O)O)C(=O)N[C@@H](CO)C(=O)N[C@@H](CO)C(=O)N[C@@H](CSCC(=O)NC)C(N)=O)NC(=O)[C@H](Cc2ccc(O)cc2)N(C)C(=O)[C@H](Cc2ccc(O)cc2)NC(=O)[C@H](CCCNC(=N)N)NC(=O)[C@H](CCCNC(=N)N)NC(=O)[C@H]([C@@H](C)CC)NC1=O` [compound 424], 1 to 100 nM.
As for `CC[C@H](C)[C@@H]1NC(=O)[C@H](Cc2ccc(O)cc2)NC(=O)[C@H](Cc2ccc(O)cc2)NC(=O)[C@H](CC(N)=O)NC(=O)[C@H](Cc2c[nH]c3ccccc23)NC(=O)[C@H](C(C)C)NC(=O)[C@H](Cc2ccccc2)N(C)C(=O)[C@H](C(C)C)NC(=O)[C@H](C)NC(=O)CSC[C@@H](C(=O)NCC(=O)N[C@H](CCC(=O)O)C(=O)N[C@H](CCC(=O)O)C(=O)NCC(=O)N[C@@H](CO)C(=O)N[C@@H](CO)C(=O)N[C@@H](CSCC(=O)NC)C(N)=O)NC(=O)[C@H](Cc2ccc(O)cc2)N(C)C(=O)[C@H](Cc2ccc(O)cc2)NC(=O)[C@H](CCCNC(=N)N)NC(=O)[C@H](CCCNC(=N)N)NC(=O)[C@H]([C@@H](C)CC)NC1=O` [compound 425], the Kd is 1 to 100 nM.
The same measure, in the same setting: the result for `CC[C@H](C)[C@@H]1NC(=O)[C@H](Cc2ccc(O)cc2)NC(=O)[C@H](Cc2ccc(O)cc2)NC(=O)[C@H](CC(N)=O)NC(=O)[C@H](Cc2c[nH]c3ccccc23)NC(=O)[C@H](C(C)C)NC(=O)[C@H](Cc2ccccc2)N(C)C(=O)[C@H](C(C)C)NC(=O)[C@H](C)NC(=O)CSC[C@@H](C(=O)NCC(=O)NCC(=O)NCC(=O)NCC(=O)N[C@@H](CO)C(=O)N[C@@H](CO)C(=O)N[C@@H](CSCC(=O)NC)C(N)=O)NC(=O)[C@H](Cc2ccc(O)cc2)N(C)C(=O)[C@H](Cc2ccc(O)cc2)NC(=O)[C@H](CCCNC(=N)N)NC(=O)[C@H](CCCNC(=N)N)NC(=O)[C@H]([C@@H](C)CC)NC1=O` [compound 443] reads 1 to 100 nM.
In the case of `CC[C@H](C)[C@@H]1NC(=O)[C@H](Cc2ccc(O)cc2)NC(=O)[C@H](Cc2ccc(O)cc2)NC(=O)[C@H](CC(N)=O)NC(=O)[C@H](Cc2c[nH]c3ccccc23)NC(=O)[C@H](C(C)C)NC(=O)[C@H](Cc2ccccc2)N(C)C(=O)[C@H](C(C)C)NC(=O)[C@H](C)NC(=O)CSC[C@@H](C(=O)NCC(=O)N[C@H](CCC(=O)O)C(=O)N[C@H](CCC(=O)O)C(=O)N[C@H](CCC(=O)O)C(=O)NCC(=O)N[C@H](CCCCN)C(N)=O)NC(=O)[C@H](Cc2ccc(O)cc2)N(C)C(=O)[C@H](Cc2ccc(O)cc2)NC(=O)[C@H](CCCNC(=N)N)NC(=O)[C@H](CCCNC(=N)N)NC(=O)[C@H]([C@@H](C)CC)NC1=O` [compound 444], the Kd fell in the range of 1 to 100 nM.
On the same count and under the same terms, to `CC[C@H](C)[C@@H]1NC(=O)[C@H](Cc2ccc(O)cc2)NC(=O)[C@H](Cc2ccc(O)cc2)NC(=O)[C@H](CC(N)=O)NC(=O)[C@H](Cc2c[nH]c3ccccc23)NC(=O)[C@H](C(C)C)NC(=O)[C@H](Cc2ccccc2)N(C)C(=O)[C@H](C(C)C)NC(=O)[C@H](C)NC(=O)CSC[C@@H](C(=O)NCCOCCOCCOCCOCCC(=O)N[C@H](CCCCNC(=O)c2ccc(-c3c4ccc(=O)cc-4oc4cc(O)ccc34)c(C(=O)O)c2)C(N)=O)NC(=O)[C@H](Cc2ccc(O)cc2)N(C)C(=O)[C@H](Cc2ccc(O)cc2)NC(=O)[C@H](CCCNC(=N)N)NC(=O)[C@H](CCCNC(=N)N)NC(=O)[C@H]([C@@H](C)CC)NC1=O` [compound 446] belongs below 1 nM.

One may read the Kd as a measure of binding affinity in units of concentration.
